{
  "source": "patent US20250197451A1",
  "about": "“USE OF BIOACTIVE POLYPEPTIDE SYNTHESIZED ON BASIS OF KDM2B SEQUENCE IN NEURAL DIFFERENTIATION AND REGENERATION AND REPAIR OF MESENCHYMAL STEM CELLS” (CAPITAL MEDICAL UNIVERSITY SCHOOL OF STOMATOLOGY, priority 2021, published 2025)",
  "key": {"KDM2B": {"test_system": "KDM2B", "assay": "real-time fluorescence reverse transcription quantitative PCR, KDM2B/GAPDH in SCAPs", "format": "cell-based, human", "method": "The plasmid was constructed according to standard methods. The complementary shRNA sequence targeting KDM2B gene was cloned into the viral vector pLKO.1 plasmid, sequenced and identified to complete the construction of the KDM2B shRNA plasmid. After PCR primers were designed for the full-length sequence of the KDM2B gene, the full-length sequence of the KDM2B gene was obtained by amplification, and the HA Tag was added. The tagged full-length KDM2B gene was ligated with the pQCXIN retroviral expression vector, sequenced and identified to obtain the plasmid containing the HA tagged full-length KDM2B gene. The virus packaging was carried out, and the resulting virus was collected, and the virus titer was measured. The virus was aliquoted and stored in the refrigerator at −80° C. The virus at a titer of 10-7 was incubated with stem cells from apical papillae in the presence of polybrene for 48 hours for infection, and the antibiotic was used to screen the infected cells. The sequence of the complementary shRNA targeting the KDM2B gene was represented as KDM2Bsh, with a nucleic acid sequence of 5′-[…]-3′ (SEQ ID NO: 287)."}, "[1]": {"test_system": "stem cells from apical papilla (SCAPs)", "assay": "neural induction in vitro: neurosphere formation with βIII-TUBULIN / NESTIN immunofluorescence staining", "format": "cell-based, human", "text": "[…]"}, "EZH2 protein": {"target": "EZH2 protein (Homo sapiens, UniProt Q15910)", "sequence (Q15910 whole entry, species assumed)": "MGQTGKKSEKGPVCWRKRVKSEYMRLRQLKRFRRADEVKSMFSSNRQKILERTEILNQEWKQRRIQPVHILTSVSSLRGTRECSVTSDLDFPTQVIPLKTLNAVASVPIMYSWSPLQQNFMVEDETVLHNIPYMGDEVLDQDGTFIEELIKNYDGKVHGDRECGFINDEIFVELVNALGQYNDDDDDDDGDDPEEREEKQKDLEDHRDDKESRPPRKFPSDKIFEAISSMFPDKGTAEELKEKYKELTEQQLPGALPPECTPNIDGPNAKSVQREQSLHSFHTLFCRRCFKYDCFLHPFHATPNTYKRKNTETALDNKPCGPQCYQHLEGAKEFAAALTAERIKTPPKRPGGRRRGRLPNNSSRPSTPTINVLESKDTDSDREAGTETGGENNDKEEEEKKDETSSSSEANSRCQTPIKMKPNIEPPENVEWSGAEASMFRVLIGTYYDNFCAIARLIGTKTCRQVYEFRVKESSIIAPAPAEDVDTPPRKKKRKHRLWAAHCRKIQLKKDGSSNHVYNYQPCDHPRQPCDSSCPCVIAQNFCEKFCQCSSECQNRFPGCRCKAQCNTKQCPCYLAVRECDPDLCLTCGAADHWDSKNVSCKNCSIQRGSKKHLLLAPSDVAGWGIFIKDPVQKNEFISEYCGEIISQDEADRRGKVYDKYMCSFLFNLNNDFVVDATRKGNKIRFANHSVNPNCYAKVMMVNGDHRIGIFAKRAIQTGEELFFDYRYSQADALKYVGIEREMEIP", "assay": "KDM2B polypeptide microarray immune-hybridization with biotin-labelled EZH2 protein", "format": "binding", "details": "for Intensity (%) (gray intensity of colored points on the KDM2B polypeptide microarray): biotin-labelled EZH2 1 μg/ml, highest optical density set to 100%, some points noise/spike; for binding site of KDM2B to EZH2 (positive / negative): polypeptide microarray", "text": "[…]"}, "[2]": {"test_system": "rat model of spinal cord injury (completely transected T10 spinal cord)", "assay": "rat model of spinal cord injury, transplantation of stem cells from apical papilla (BBB score, gross appearance)", "format": "in vivo", "details": "SCI + SCAPs pre-treated with 10 μg/ml peptide 24 hours, individual rats", "text": "[…]"}, "[3]": {"test_system": "rat model of spinal cord injury (complete transection site T10 spinal cord)", "assay": "rat model of spinal cord injury, local injection of peptide alone (BBB score, gross appearance)", "format": "in vivo", "details": "SCI + peptide alone, 10 μg/ml in 30 μl weekly local injection, individual rats", "method": "10 μg/ml of peptide 46-47 in a total of 30 μl was weekly injected into 10-week-old rats at the complete transection site T10 spinal cord (5 individual rats per group)."}, "[4]": {"details": "virally transfected SCAPs (overexpression or knockdown), Day 9, individual samples"}, "[5]": {"details": "SCAPs + 10 μg/ml peptide, Day 9 of induction, individual samples"}, "[6]": {"details": "SCAPs + 10 μg/ml peptide, Day 9 of induction, mean of 5 samples"}},
  "note": "Several values for one entry are separate records, joined by “and”; a condition that tells them apart may be missing. Equal entries are not always repeated. Ends that are not written are not given here.",
  "data": [
    {"substance": "5′-ATTTTGACGGGGTGGATAATCTG-3′ (expressed or natural sequence) [KDM2Bsh, complementary shRNA targeting the KDM2B gene, cloned into viral vector pLKO.1, reference compound]", "values": [
      {"measurement": "Expression of KDM2B/GAPDH in KDM2B-knockdown SCAPs (fold)", "setting": "KDM2B; individual samples", "value": "0.34 fold and 0.31 fold and 0.28 fold"},
      {"measurement": "Expression of KDM2B/GAPDH in KDM2B-knockdown SCAPs (fold), Means", "setting": "KDM2B; mean of 3 samples, Scramsh 1.0003", "value": 0.3067, "unit": "fold"},
      {"measurement": "Number of NESTIN-positive neurospheres", "setting": "[1]; [4]", "value": "5 and 4 and 2 (2×) and 3"},
      {"measurement": "Number of βIII-TUBULI-positive neurospheres", "setting": "[1]; [4]", "value": "4 (2×) and 2 and 6 and 3"},
      {"measurement": "Number of βIII-TUBULI-positive neurospheres, Means", "setting": "[1]; virally transfected SCAPs (overexpression or knockdown), Day 9, mean of 5 samples, Vector 9, Scramsh 9", "value": 3.8},
      {"measurement": "Number of NESTIN-positive neurospheres, Means", "setting": "[1]; virally transfected SCAPs (overexpression or knockdown), Day 9, mean of 5 samples, Vector 11, Scramsh 8.2", "value": 3.2}
    ]},
    {"substance": "A V G T T T R D S L T E I N L (AVGTTTRDSLTEINL; synthesized KDM2B peptide) [compound 253]", "values": [
      {"measurement": "Intensity (%) (gray intensity of colored points on the KDM2B polypeptide microarray)", "setting": "EZH2 protein", "value": 70.41, "unit": "%"}
    ]},
    {"substance": "C I M R Q C I A P V L P H T A (CIMRQCIAPVLPHTA; synthesized KDM2B peptide) [compound 130]", "values": [
      {"measurement": "Intensity (%) (gray intensity of colored points on the KDM2B polypeptide microarray)", "setting": "EZH2 protein", "value": 30.8, "unit": "%"}
    ]},
    {"substance": "ConPP: control polypeptide synthesized from the negative binding sites (peptide 83-84) of KDM2B, with cell-penetrating peptide and FITC label (EEEACDQQPQEEEEKDEEGE; also: cell-penetrating peptide and FITC label, sites not given here)", "values": [
      {"measurement": "Number of NESTIN-positive neurosphers", "setting": "[1]; [5]", "value": "3 (2×) and 4 (2×) and 6"},
      {"measurement": "Number of βIII-TUBULIN-positive neurosphers", "setting": "[1]; [5]", "value": "8 (2×) and 6 (2×) and 7"},
      {"measurement": "Number of NESTIN-positive neurosphers, Means", "setting": "[1]; [6]", "value": 4},
      {"measurement": "Number of βIII-TUBULIN-positive neurosphers, Means", "setting": "[1]; [6]", "value": 7},
      {"measurement": "BBB score of hind limb motor function", "setting": "[2]; 0 w", "value": "5 and 4 (4×)"},
      {"measurement": "BBB score of hind limb motor function", "setting": "[2]; 1 w", "value": "5 (3×) and 6 (2×)"},
      {"measurement": "BBB score of hind limb motor function", "setting": "[2]; 2 w", "value": "6 (2×) and 7 (3×)"},
      {"measurement": "BBB score of hind limb motor function", "setting": "[2]; 3 w", "value": "8 (3×) and 9 (2×)"},
      {"measurement": "BBB score of hind limb motor function", "setting": "[2]; 4 w", "value": "10 (2×) and 11 and 12 and 13"},
      {"measurement": "BBB score of hind limb motor function", "setting": "[3]; 1 w", "value": "6 (3×) and 5 (2×)"},
      {"measurement": "BBB score of hind limb motor function", "setting": "[3]; 2 w", "value": "7 (2×) and 6 (2×) and 8"},
      {"measurement": "BBB score of hind limb motor function", "setting": "[3]; 3 w", "value": "9 (3×) and 10 and 8"},
      {"measurement": "BBB score of hind limb motor function", "setting": "[3]; 4 w", "value": "12 (2×) and 11 (3×)"},
      {"measurement": "BBB score of hind limb motor function", "setting": "[3]", "value": "4 (3×) and 5 (2×)"}
    ]},
    {"substance": "D Q Q P Q E E E E K D E E G E (DQQPQEEEEKDEEGE; synthesized KDM2B peptide) [peptide 84]", "values": [
      {"measurement": "binding site of KDM2B to EZH2 (positive / negative)", "setting": "EZH2 protein", "value": "negative"}
    ]},
    {"substance": "E E E A C D Q Q P Q E E E E K (EEEACDQQPQEEEEK; synthesized KDM2B peptide) [peptide 83]", "values": [
      {"measurement": "binding site of KDM2B to EZH2 (positive / negative)", "setting": "EZH2 protein", "value": "negative"}
    ]},
    {"substance": "G K Q S D I F L G D R V E R C (GKQSDIFLGDRVERC; synthesized KDM2B peptide) [compound 57]", "values": [
      {"measurement": "Intensity (%) (gray intensity of colored points on the KDM2B polypeptide microarray)", "setting": "EZH2 protein", "value": 39.95, "unit": "%"}
    ]},
    {"substance": "I Y E I E D R T R V Q P K F R (IYEIEDRTRVQPKFR; synthesized KDM2B peptide) [compound 69]", "values": [
      {"measurement": "Intensity (%) (gray intensity of colored points on the KDM2B polypeptide microarray)", "setting": "EZH2 protein", "value": 0.15, "unit": "%"}
    ]},
    {"substance": "L A V D Y P K T P T G S P A T (LAVDYPKTPTGSPAT; synthesized KDM2B peptide) [compound 98]", "values": [
      {"measurement": "Intensity (%) (gray intensity of colored points on the KDM2B polypeptide microarray)", "setting": "EZH2 protein", "value": 0.77, "unit": "%"}
    ]},
    {"substance": "Q P K F R Y P F Y Y E M C W Y (QPKFRYPFYYEMCWY; synthesized KDM2B peptide) [compound 71]", "values": [
      {"measurement": "Intensity (%) (gray intensity of colored points on the KDM2B polypeptide microarray)", "setting": "EZH2 protein", "value": 0.57, "unit": "%"}
    ]},
    {"substance": "T E I N L S D C N K V T D Q C (TEINLSDCNKVTDQC; synthesized KDM2B peptide) [compound 255]", "values": [
      {"measurement": "Intensity (%) (gray intensity of colored points on the KDM2B polypeptide microarray)", "setting": "EZH2 protein", "value": 100, "unit": "%"}
    ]},
    {"substance": "T R D S L T E I N L S D C N K (TRDSLTEINLSDCNK; synthesized KDM2B peptide) [compound 254]", "values": [
      {"measurement": "Intensity (%) (gray intensity of colored points on the KDM2B polypeptide microarray)", "setting": "EZH2 protein", "value": 100, "unit": "%"}
    ]},
    {"substance": "V L E R Y V Y C V T Q R S H L (VLERYVYCVTQRSHL; synthesized KDM2B peptide) [compound 74]", "values": [
      {"measurement": "Intensity (%) (gray intensity of colored points on the KDM2B polypeptide microarray)", "setting": "EZH2 protein", "value": 0.25, "unit": "%"}
    ]}
  ]
}
